Results taken from ChEMBL document CHEMBL1130794, “Phthalimidomethyl as a drug pro-moiety. Probing its reactivity” (Bioorg Med Chem Lett, 1998).

Assay: Second-order rate constant for the alkaline hydrolysis was determined
Assay type: ADME

kHO [M⁻¹ s⁻¹] | Structure (SMILES)
33.9 | COc1ccc(C(=O)OCN2C(=O)c3ccccc3C2=O)cc1
76.8 | O=C(OCN1C(=O)c2ccccc2C1=O)c1ccc([N+](=O)[O-])cc1
56.7 | O=C(OCN1C(=O)c2ccccc2C1=O)c1ccc(Cl)cc1

The remaining lines, values behind:

Structure (SMILES) | kHO [M⁻¹ s⁻¹]
O=C(OCN1C(=O)c2ccccc2C1=O)c1ccccc1 | 50.4
CC1(C)S[C@@H]2[C@H](NC(=O)Cc3ccccc3)C(=O)N2[C@H]1C(=O)OCN1C(=O)c2ccccc2C1=O | 65.6
O=C1c2ccccc2C(=O)N1CO[N+](=O)[O-] | 79.7
COCN1C(=O)c2ccccc2C1=O | 35.3
O=C(OCN1C(=O)c2ccc([N+](=O)[O-])cc2C1=O)c1ccccc1 | 559
Cc1ccc2c(c1)C(=O)N(COC(=O)c1ccccc1)C2=O | 27.3
O=C1c2ccccc2C(=O)N1CCl | 105.8
CN1C(=O)c2ccccc2C1=O | 37.5
